This is an account of results in patent US4061757A, “Compounds having juvenile hormone activity” (A/S Cheminova, priority 1971, dated 1977).

Structures are written as SMILES.

The test system of one experiment is Tenebrio molitor L. In words: Tenebrio test (topical application to pupae, morphological inhibition of adult characters). The format is in vivo, Tenebrio molitor L (yellow mealworm). Particulars: for ID-50 morph.: Table I, topical, acetone solution, 0.5 to 2 hours old pupae (150 mg), 27° C, 70% RH. The protocol: (§1) The biological tests are examplified by tests on the yellow mealworm, Tenebrio molitor L, Galleria mellonella L, Culex pipiens L, Aedes aegypti L and Drosophila melanogaster L.
Tenebrio test: The material in question is applied topically to the abdomen of 0.5 to 2 hours old pupae of the said species, as a solution in acetone. The pupae are held at 27° C and 70% RH, ecdysis occuring 5 to 7 days later. The degree of inhibition of adult characters is referred to an arbitrary scale, where a morphologically perfect adult is given the character 0%, and a perfect second pupae 100%. In Table 1 is given the morphological inhibition dose 50% (ID 50 morph.) for some of the chemicals invented, in μg per standard pupa (150 mg). ID 50 morph. refers to specimens showing predominantly adult characters in the front part, pupal characters in the abdomen.
ID50 morph is as said above the dose causing development of individuals showing predominantly adult characters in the front part and pupal characters in the abdomen. It is known that ID50 -doses in general are 10 times greater than ED50 -doses.

In experiment [1] the test system is Drosophila melanogaster L. Briefly: Drosophila test (compound in agar based food, pupae which fail in ecdysis). The format is in vivo. Particulars: Table I, in artificial agar based food, pupae failing in ecdysis. As for the experimental part: as §1
Drosophila test: One ml of acetone solution of the compound to be tested is mixed with an artificial agar based food mixture just before this solidifies. Ten less than one day old adult flies -- five of each sex -- are added, and all abnormalities observed for two generations. Juvenile hormone activity is especially noted in the pupae which fail in ecdysis. EC50 -eclos. is given in ppm.

The next experiment relates to Culex pipiens L. Briefly: Culex test (mature larvae, loss of 50% of test animals). The format is in vivo. Particulars: Table I, read-out: IC-50 eclos. As for the experimental part:
The biological tests are examplified by tests on the yellow mealworm, Tenebrio molitor L, Galleria mellonella L, Culex pipiens L, Aedes aegypti L and Drosophila melanogaster L. Culex test: The compounds are tested on mature larvae. The concentration (IC-50 eclos.) is given in ppm.

Compound `CC(C)=CCCC(C)=CCOc1ccc(C(C)C)nc1` [Compound 8, 3,7-Dimethyl-1-(6'-isopropyl-3'-pyridyloxy)-2,6-octadiene] yielded an ID-50 morph. in the experiment with Tenebrio molitor L of 0.004 μg/pupa.
Same read-out and setting: under `Cc1ccc(OCCC(C)CCC2OC2(C)C)cn1` (stereo not drawn) [Compound 35, 6,7-epoxy-3,7-dimethyl-1-(6'-methyl-3'pyridyloxy)-octane] stands 0.05 μg/pupa.
In the experiment with Tenebrio molitor L, `CCc1ccc(OCCC(C)CCCC(C)(C)OC)cn1` (stereo not drawn) [Compound 40, 7-Methoxy-3,7-dimethyl-1l-(6'-ethyl-3'-pyridyloxy)-octane] yielded an ID-50 morph. of 0.02 μg/pupa. This compound gave an EC-50 eclos in experiment [1] of more than 100 ppm.
In the experiment with Tenebrio molitor L, `CC(C)=CCCC(C)CCOc1cccnc1` (stereo not drawn) [Compound 32, 3,7-Dimethyl-1-(3'-pyridyloxy)-6-octene] had an ID-50 morph. of 5. μg/pupa. Also, in the experiment with Culex pipiens L, the IC50 for inhibition of adult emergence (eclosion) stood at 0.2 µg/mL.
As for `CC(C)=CCCC(C)=CCOc1ccc(C)nc1CO` [Compound 31, 3,7-Dimethyl-1-(2'-hydroxymethyl-6'-methyl-3'pyridyloxy)-2,6-octadiene], the ID-50 morph. with Tenebrio molitor L was 10 μg/pupa. For the same compound, the IC50 for inhibition of adult emergence (eclosion) with Culex pipiens L was more than 10 µg/mL.
The corresponding values for `CCOC(C)(C)CCC/C(C)=C/COc1ccc(C)nc1` [Compound 3, 7-ethoxy-3,7-dimethyl-1-(6'-methyl-3'-pyridyloxy)-2-octene] are 0.001 μg/pupa and less than 10 µg/mL.
In the experiment with Tenebrio molitor L, `CCc1ccc(OCCC(C)CCC=C(C)C)cn1` (stereo not drawn) [Compound 37, 3,7-dimethyl-1-(6'-ethyl-3'-pyridyloxy)-6-octene] displayed an ID-50 morph. of 0.2 μg/pupa. Also, in experiment [1], the EC-50 eclos is reported as more than 100 ppm.
In turn, `CCC(C)=CCCC(C)=CCOc1ccc(CC)nc1` [Compound 29, 3,7-Dimethyl-1-(6'-ethyl-3'-pyridyloxy)-2,6-nonadiene] came in with an ID-50 morph. in the experiment on Tenebrio molitor L of 0.02 μg/pupa. In addition, the EC-50 eclos in experiment [1] was more than 100 ppm.
`CCC(=CCOc1ccc(C)nc1)CCC1OC1(C)CC` (stereo not drawn) [Compound 14, 6,7-Epoxu-3-ethyl-7-methyl-1-(6'-methyl-3'-pyridyloxy)-2-nonene] registered an ID-50 morph. with Tenebrio molitor L of 0.002 μg/pupa.
The same measure, in the same setting: under `CCc1ccc(OCC=C(C)CCCC(C)(C)OC)cn1` [Compound 28, 7-Methoxy-3,7-dimethyl-1-(6'-ethyl-3'-pyridyloxy)-2-octene] stands 0.001 μg/pupa.
Compound `CC(C)=CCCC(C)=CCOc1cccnc1CO` [Compound 25, 3,7-Dimethyl-1-(2'-hydroxymethyl-3'-pyridyloxy)-2,6-octadiene] yielded an ID-50 morph. in the experiment with Tenebrio molitor L of 10. μg/pupa.
Same read-out and setting: under `CC(C)=CCCC(C)=CCOc1cccnc1C` [Compound 26, 3,7 Dimethyl-1-(2'-methyl-3'-pyridyloxy)-2,6-octadiene] stands 10. μg/pupa; under `COc1ccc(NCC=C(C)CCC=C(C)C)cn1` [Compound 17, N, 3'-3,7-Dimethyl-2,6-octadienlyl-(6'methoxy-3'-aminopyridin)], 0.4 μg/pupa; under `CCC(C)=CCCC(=CCOc1ccc(CC)nc1)CC` [Compound 11, 3-EThyl-7-methyl-1-(6'-ethyl-3'-pyridyloxy)-2,6-nonadiene], 0.001 μg/pupa.
Turning to `CCOC(C)(CC)CCCC(=CCOc1cccnc1)CC` (stereo not drawn) [Compound 22, 7-Ethoxy-3-ethyl-7-methyl-1-(3'-pyridyloxy)-2-nonene], in the experiment with Tenebrio molitor L, the ID-50 morph. came out at 0.01 μg/pupa.
Turning to `CCOC(C)(CC)CCCC(=CCOc1ccc(C)nc1)CC` (stereo not drawn) [Compound 23, 7-Ethoxy-3-ethyl-7-methyl-1l-(6'-methyl-3'-pyridyloxy)-2-nonene], the ID-50 morph. in the experiment with Tenebrio molitor L came to 0.001 μg/pupa. The IC50 for inhibition of adult emergence (eclosion) with Culex pipiens L is 0.5 µg/mL.
The corresponding values for `CC(C)=CCCC(C)=CCOc1ccc(C)nc1[N+](=O)[O-]` [Compound 24, 3,7-Dimethyl-1l-(2'-nitro-6'-methyl-3'-pyridyloxy)-2,6-octadiene] are 75. μg/pupa and more than 10 µg/mL.
In the experiment with Tenebrio molitor L, `CCOC(C)(C)CCCC(C)=CCOc1ccc(CC)nc1` [Compound 27, 7-Ethoxy-3,7-dimethyl-1-(6'-ethyl-3'-pyridyloxy)-2-octene] gave an ID-50 morph. of 0.0001 μg/pupa. Besides, the IC50 for inhibition of adult emergence (eclosion) in the experiment on Culex pipiens L is less than 1 µg/mL. This compound displayed an EC-50 eclos in experiment [1] of more than 100 ppm.
Take `CC(C)=CCC/C(C)=C/CNc1cccnc1` [Compound 5, N,3'-3,7-dimethyl-2,6-octadienyl-1-(3'-a-minopyridine)]: the ID-50 morph. in the experiment with Tenebrio molitor L amounted to 40.0 μg/pupa. In the experiment on Culex pipiens L, the IC50 for inhibition of adult emergence (eclosion) was 10 µg/mL.
As for `COc1ccc(OCC=C(C)CCC=C(C)C)cn1` [Compound 9, 3,7-Dimethyl-1-(6'-methoxy-3'-pyridyloxy)-2,6-acetadiene], the ID-50 morph. in the experiment with Tenebrio molitor L came to 0.02 μg/pupa. Also, in the experiment on Tenebrio molitor L (Table II, compounds of the formula I, Tenebrio), the “ID 50 morph.” value is 0,02 μg/150 mg pupa.
Compound `CCc1ccc(OCC=C(C)CCC=C(C)C)cn1` [Compound 7, 3,7-Dimethyl-1-(6'-ethyl-3'-pyridyloxy)-2,6-octadiene] had an ID-50 morph. in the experiment on Tenebrio molitor L of 0.005 μg/pupa. Further, the IC50 for inhibition of adult emergence (eclosion) in the experiment on Culex pipiens L turned out to be 0.05 µg/mL. The same compound yielded an EC-50 eclos in experiment [1] of more than 100 ppm.
The compound `COC(C)(C)CCCC(C)=CCOc1cccnc1` [Compound 20, 7-Methoxy-3,7-dimethyl-1l-(3'-pyridyloxy)-2-ocetene] came in with an ID-50 morph. in the experiment with Tenebrio molitor L of 1.0 μg/pupa.
In the experiment with Tenebrio molitor L, `CCC(=CCOc1cccnc1)CCC1OC1(C)CC` (stereo not drawn) [Compound 19, 6,7-Epoxy-3-ethyl-7-methyl-1-(3'-pyridyloxy)-2-nonene] displayed an ID-50 morph. of 0.02 μg/pupa.
Same read-out and setting: under `CCC(C)=CCCC(=CCOc1ccc(C)nc1)CC` [Compound 10, 3-Ethyl-7-methyl-1l-(6'-methyl-3'-pyridyloxy)-2,6-nonadiene] stands 0.002 μg/pupa; under `C/C(=C\COc1ccc(C)nc1)CCCC(C)(C)O` [Compound 4, 7-hydroxy-3,7-dimethyl-1-(6'-methyl-3'-pyridyloxy)-2-octene], 4.0 μg/pupa.
On the same count and under the same terms, as for `CCOC(C)(C)CCCC(C)=CCOc1cccnc1` [Compound 16, 7-Ethoxy-3,7-dimethyl-1-(3'-pyridyloxy)-2-octene], the figure is 0.009 μg/pupa.
Take `CC(C)=CCCC(C)=CCOc1cccnc1` [Compound 6, 3,7-Dimethyl-1-(3'-pyridyloxy)-2,6-octadiene]: the ID-50 morph. in the experiment with Tenebrio molitor L is reported as 3.0 μg/pupa.
The same measure, in the same setting: under `CCC(=CCOc1ccc(CC)nc1)CCC1OC1(C)CC` (stereo not drawn) [Compound 15, 6,7 Epoxy-3-ethyl-7-methyl-1-(6'-ethyl-3'-pyridyloxy)-2l-nonene] stands 0.0001 μg/pupa.
In the experiment on Tenebrio molitor L, `CC(C)=CCCC(C)CCOc1ccc(C)nc1` (stereo not drawn) [Compound 34, 3,7-dimethyl-1-(6'-methyl-3'-pyridyloxy)-6-octene] yielded an ID-50 morph. of 0.4 μg/pupa. In addition, the IC50 for inhibition of adult emergence (eclosion) in the experiment on Culex pipiens L came to 0.5 µg/mL.
`CCC(C)=CCCC(=CCOc1cccnc1)CC` [Compound 18, 3-Ethyl-7-methyl-1-(3'-pyridyloxy)-2,6-nonadiene] came in with an ID-50 morph. in the experiment on Tenebrio molitor L of 0.2 μg/pupa.
In turn, `CCOC(C)(C)CCCC(C)CCOc1ccc(C)nc1` (stereo not drawn) [Compound 36, 7-Ethoxy-3,7-dimethyl-1-(6'-methyl-3'-pyridyloxy)-octane] came in with an ID-50 morph. in the experiment on Tenebrio molitor L of 0.05 μg/pupa. Moreover, the EC-50 eclos in experiment [1] was more than 100 ppm.
`CC(=CCOc1cccnc1)CCC1OC1(C)C` (stereo not drawn) [Compound 12, 6,7-Epoxy-3,7-dimethyl-1l-(3'-pyridyloxy)-2-ocetene] had an ID-50 morph. with Tenebrio molitor L of 0.2 μg/pupa.
